The source of these data is ChEMBL document CHEMBL4699440, “Comprehensive review on the anti-bacterial activity of 1,2,3-triazole hybrids” (Eur J Med Chem, 2019).

Values after ≈ are worked out from the molar mass of the structure shown.

Holding throughout (format): functional
In assay [1] the test system is Bacillus subtilis. Description: Antibacterial activity against Bacillus subtilis ATCC 6051 incubated for 24 hrs by broth microdilution method. A general note: In broth dilution the organism is exposed to a series of concentrations in liquid medium.
The test system of assay [2] is Escherichia coli. As to the kind of experiment: Antibacterial activity against Escherichia coli ATCC 25922 incubated for 24 hrs by broth microdilution method.
Assay [3] relates to Candida albicans. As to the kind of experiment: Antifungal activity against Candida albicans ATCC 2091 incubated for 24 hrs by broth microdilution method.
For assay [4], the system named is Pseudomonas aeruginosa. Description: Antibacterial activity against Pseudomonas aeruginosa ATCC 25619 incubated for 24 hrs by broth microdilution method.
In assay [5] the test system is Staphylococcus aureus. Description: Antibacterial activity against Staphylococcus aureus ATCC 12598 incubated for 24 hrs by broth microdilution method.
Assay [6] deals with Aspergillus niger. As to the kind of experiment: Antibacterial activity against Aspergillus niger ATCC 9029 incubated for 24 hrs by broth microdilution method.
The test system of assay [7] is Escherichia coli. Description: Antibacterial activity against Escherichia coli MTCC […] by serial dilution method.
Assay [8] concerns Staphylococcus epidermidis. Description: Antibacterial activity against Staphylococcus epidermidis MTCC 6880 by serial dilution method.
The test system of assay [9] is Candida albicans. As to the kind of experiment: Antibacterial activity against Candida albicans MTCC 227 by serial dilution method.
Assay [10] concerns Pseudomonas aeruginosa. Description: Antibacterial activity against Pseudomonas aeruginosa MTCC 424 by serial dilution method.
In assay [11] the test system is Bacillus subtilis. As to the kind of experiment: Antibacterial activity against Bacillus subtilis MTCC 441 by serial dilution method.
In assay [12] the test system is Aspergillus niger. Description: Antibacterial activity against Aspergillus niger MTCC 8189 by serial dilution method.

Consider `CCOC(=O)c1c(C)nnn1Cc1cc(=O)oc2ccc(C)cc12`, for which the MIC (commonly the lowest concentration that inhibits growth of the organism) in [1] was 25 µg/mL (≈ 76.4 µM); in [2] it was 0.4 µg/mL (≈ 1.22 µM); in assay [3], 0.2 µg/mL (≈ 0.611 µM); in [4], 25 µg/mL (≈ 76.4 µM); in [5], 0.2 µg/mL (≈ 0.611 µM); in assay [6], 0.2 µg/mL (≈ 0.611 µM).
Turning to `N#Cc1c(N)nnn1Cc1cc(=O)oc2c3c(ccc12)OCO3`, the MIC in [1] came out at 25 µg/mL (≈ 80.3 µM); in [2] it was 0.2 µg/mL (≈ 0.643 µM); in [3], 0.2 µg/mL (≈ 0.643 µM); in [4] it was 25 µg/mL (≈ 80.3 µM); in [5], 0.2 µg/mL (≈ 0.643 µM); in assay [6] it was 0.2 µg/mL (≈ 0.643 µM).
Consider `Cc1nnn(Cc2cc(=O)oc3ccc4c(c23)OCO4)c1C(=O)O`, for which the MIC turned out to be 25 µg/mL (≈ 75.9 µM) in assay [1]; 0.2 µg/mL (≈ 0.607 µM) in assay [2]; 0.2 µg/mL (≈ 0.607 µM) in [3]; 25 µg/mL (≈ 75.9 µM) in [4]; 0.2 µg/mL (≈ 0.607 µM) in assay [5]; 0.2 µg/mL (≈ 0.607 µM) in [6].
In the case of `CCOC(=O)c1c(C)nnn1Cc1cc(=O)oc2c3c(ccc12)OCO3`, the MIC was 25 µg/mL (≈ 70 µM) in assay [1]; 0.2 µg/mL (≈ 0.56 µM) in [2]; 0.2 µg/mL (≈ 0.56 µM) in assay [3]; 25 µg/mL (≈ 70 µM) in assay [4]; 0.2 µg/mL (≈ 0.56 µM) in assay [5]; 0.2 µg/mL (≈ 0.56 µM) in [6].
`COc1ccc2oc(=O)cc(Cn3nnc(N)c3C#N)c2c1`: the MIC was determined as 25 µg/mL (≈ 84.1 µM) in [1]; 0.2 µg/mL (≈ 0.673 µM) in assay [2]; 0.2 µg/mL (≈ 0.673 µM) in assay [3]; 25 µg/mL (≈ 84.1 µM) in [4]; 0.2 µg/mL (≈ 0.673 µM) in assay [5]; 0.2 µg/mL (≈ 0.673 µM) in [6].
Consider `Cc1cc(O)c(C(=O)/C=C/c2ccc(OCc3cn(Cc4ccccc4Br)nn3)cc2)c(=O)o1`, for which the MIC in assay [7], in assay [8], in [9], in assay [10], in [11] and in assay [12] was 3 µM (≈ 1.57 µg/mL) in each case.
As for `Cc1cccc(Cn2cc(COc3ccc(/C=C/C(=O)c4c(O)cc(C)oc4=O)cc3)nn2)c1`, the MIC in [7], in [8], in assay [9], in assay [10], in assay [11] and in [12] was 3 µM (≈ 1.37 µg/mL) throughout.
For the compound `Cc1ccc(Cn2cc(COc3ccc(/C=C/C(=O)c4c(O)cc(C)oc4=O)cc3)nn2)cc1`, the MIC in assay [7], in [8], in assay [9], in [10], in assay [11] and in assay [12] was 3 µM (≈ 1.37 µg/mL) in each case.
Turning to `Cc1ccc2c(Cn3nnc(C)c3C(=O)O)cc(=O)oc2c1`, the minimum inhibitory concentration (MIC) in assay [1] amounted to 25 µg/mL (≈ 83.5 µM); in assay [2], 0.2 µg/mL (≈ 0.668 µM); in assay [3] it was 0.2 µg/mL (≈ 0.668 µM); in [4], 25 µg/mL (≈ 83.5 µM); in [5], 0.2 µg/mL (≈ 0.668 µM); in assay [6], 0.2 µg/mL (≈ 0.668 µM).
With `COc1ccc2oc(=O)cc(Cn3nnc(C)c3C(=O)O)c2c1`, the minimum inhibitory concentration (MIC) amounted to 25 µg/mL (≈ 79.3 µM) in [1]; 0.2 µg/mL (≈ 0.634 µM) in assay [2]; 0.2 µg/mL (≈ 0.634 µM) in assay [3]; 25 µg/mL (≈ 79.3 µM) in assay [4]; 0.2 µg/mL (≈ 0.634 µM) in assay [5]; 0.2 µg/mL (≈ 0.634 µM) in assay [6].
For the compound `N#Cc1c(N)nnn1Cc1cc(=O)oc2ccc3c(c12)OCO3`, the MIC in assay [1] came out at 25 µg/mL (≈ 80.3 µM); in [2], 0.2 µg/mL (≈ 0.643 µM); in [3], 0.2 µg/mL (≈ 0.643 µM); in assay [4], 25 µg/mL (≈ 80.3 µM); in [5] it was 0.2 µg/mL (≈ 0.643 µM); in [6], 0.2 µg/mL (≈ 0.643 µM).
Take `Cc1cc(O)c(C(=O)/C=C/c2ccc(OCc3cn(Cc4ccc([N+](=O)[O-])cc4)nn3)cc2)c(=O)o1`: the MIC in assay [7], in [8], in assay [9], in [10], in assay [11] and in [12] was 3 µM (≈ 1.47 µg/mL) in each case.
As to `Cc1ccc2oc(=O)cc(Cn3nnc(C)c3C(=O)O)c2c1`, the MIC in [1] is 25 µg/mL (≈ 83.5 µM); in assay [2], 0.4 µg/mL (≈ 1.34 µM); in assay [3], 0.2 µg/mL (≈ 0.668 µM); in [4], 25 µg/mL (≈ 83.5 µM); in [5] it was 0.2 µg/mL (≈ 0.668 µM); in assay [6], 0.2 µg/mL (≈ 0.668 µM).
`CCOC(=O)c1c(C)nnn1Cc1cc(=O)oc2ccc3c(c12)OCO3`: the MIC in [1] is 25 µg/mL (≈ 70 µM); in assay [2] it was 0.2 µg/mL (≈ 0.56 µM); in [3] it was 0.2 µg/mL (≈ 0.56 µM); in assay [4], 25 µg/mL (≈ 70 µM); in assay [5], 0.2 µg/mL (≈ 0.56 µM); in [6] it was 0.2 µg/mL (≈ 0.56 µM).
On to `CCOC(=O)c1c(C)nnn1Cc1cc(=O)oc2ccc(OC)cc12`, for which the MIC was found to be 25 µg/mL (≈ 72.8 µM) in assay [1]; 0.2 µg/mL (≈ 0.583 µM) in assay [2]; 0.2 µg/mL (≈ 0.583 µM) in assay [3]; 25 µg/mL (≈ 72.8 µM) in assay [4]; 0.2 µg/mL (≈ 0.583 µM) in assay [5]; 0.2 µg/mL (≈ 0.583 µM) in assay [6].
`Cc1cc(O)c(C(=O)/C=C/c2ccc(OCc3cn(Cc4ccccc4C)nn3)cc2)c(=O)o1`: the MIC in [7], in assay [8], in assay [9], in assay [10], in [11] and in [12] was 3 µM (≈ 1.37 µg/mL) each time.
For `Cc1cc(O)c(C(=O)/C=C/c2ccc(OCc3cn(Cc4cccc([N+](=O)[O-])c4)nn3)cc2)c(=O)o1`, the MIC in [7], in [8], in [9], in assay [10], in assay [11] and in [12] was 3 µM (≈ 1.47 µg/mL) each time.
Regarding `Cc1cc(O)c(C(=O)/C=C/c2ccc(OCc3cn(-c4ccc(Br)cc4)nn3)cc2)c(=O)o1`, the MIC in [7], in assay [8], in assay [9], in [10], in assay [11] and in assay [12] was 3 µM (≈ 1.52 µg/mL) throughout.
With `Cc1cc(O)c(C(=O)/C=C/c2ccc(OCc3cn(Cc4ccccc4F)nn3)cc2)c(=O)o1`, the MIC in [7], in [8], in assay [9], in assay [10], in assay [11] and in assay [12] was 3 µM (≈ 1.38 µg/mL) in each case.
Take `Cc1cc(O)c(C(=O)/C=C/c2ccc(OCc3cn(Cc4ccc(F)cc4)nn3)cc2)c(=O)o1`: the MIC in assay [7], in assay [8], in assay [9], in assay [10], in [11] and in assay [12] was 3 µM (≈ 1.38 µg/mL) throughout.
For `Cc1cc(O)c(C(=O)/C=C/c2ccc(OCc3cn(Cc4cccc(F)c4)nn3)cc2)c(=O)o1`, the MIC in [7], in assay [8], in [9], in assay [10], in assay [11] and in assay [12] was 3 µM (≈ 1.38 µg/mL) in each case.
`Cc1cc(O)c(C(=O)/C=C/c2ccc(OCc3cn(Cc4cccc(Br)c4)nn3)cc2)c(=O)o1`: the MIC in [7], in assay [8], in assay [9], in assay [10], in assay [11] and in assay [12] was 3 µM (≈ 1.57 µg/mL) each time.
Turning to `Cc1ccc2oc(=O)cc(Cn3nnc(N)c3C#N)c2c1`, the MIC in assay [1] came to 25 µg/mL (≈ 88.9 µM); in assay [2], 0.4 µg/mL (≈ 1.42 µM); in [3], 0.2 µg/mL (≈ 0.711 µM); in assay [4], 25 µg/mL (≈ 88.9 µM); in [5] it was 1.6 µg/mL (≈ 5.69 µM); in [6], 0.2 µg/mL (≈ 0.711 µM).
`Cc1cc(O)c(C(=O)/C=C/c2ccc(OCc3cn(-c4ccc([N+](=O)[O-])cc4)nn3)cc2)c(=O)o1`: the MIC in [7], in [8], in [9], in assay [10], in assay [11] and in [12] was 3 µM (≈ 1.42 µg/mL) throughout.
As to `CCOC(=O)c1c(C)nnn1Cc1cc(=O)oc2cc(C)ccc12`, the MIC in assay [1] turned out to be 25 µg/mL (≈ 76.4 µM); in [2] it was 0.2 µg/mL (≈ 0.611 µM); in [3] it was 0.2 µg/mL (≈ 0.611 µM); in assay [4] it was 25 µg/mL (≈ 76.4 µM); in assay [5] it was 0.2 µg/mL (≈ 0.611 µM); in assay [6], 0.2 µg/mL (≈ 0.611 µM).
Consider `Cc1cc(O)c(C(=O)/C=C/c2ccc(OCc3cn(Cc4ccc(Br)cc4)nn3)cc2)c(=O)o1`, for which the MIC in assay [7], in assay [8], in assay [9], in [10], in assay [11] and in [12] was 3 µM (≈ 1.57 µg/mL) throughout.
As for `CN[C@@H]1[C@H](O[C@H]2[C@H](O[C@H]3[C@H](O)[C@@H](O)[C@H](N=C(N)N)[C@@H](O)[C@@H]3N=C(N)N)O[C@@H](C)[C@]2(O)C=O)O[C@@H](CO)[C@H](O)[C@H]1O` [STREPTOMYCIN], the MIC was determined as 2 µg/mL (≈ 3.44 µM) in [1], 2 µg/mL (≈ 3.44 µM) in assay [2], 4 µg/mL (≈ 6.88 µM) in assay [4] and 2 µg/mL (≈ 3.44 µM) in assay [5].
As for `Cc1nnn(Cc2cc(=O)oc3c4c(ccc23)OCO4)c1C(=O)O`, the MIC in [1] worked out at 25 µg/mL (≈ 75.9 µM); in [2], 0.2 µg/mL (≈ 0.607 µM); in assay [3], 0.2 µg/mL (≈ 0.607 µM); in [4], 25 µg/mL (≈ 75.9 µM); in [5], 0.2 µg/mL (≈ 0.607 µM); in assay [6], 0.2 µg/mL (≈ 0.607 µM).
Turning to `Cc1cc(O)c(C(=O)/C=C/c2ccc(OCc3cn(Cc4ccccc4[N+](=O)[O-])nn3)cc2)c(=O)o1`, the MIC in [7], in assay [8], in assay [9], in [10], in [11] and in assay [12] was 3 µM (≈ 1.47 µg/mL) throughout.
As for `Cc1ccc2c(Cn3nnc(N)c3C#N)cc(=O)oc2c1`, the MIC worked out at 25 µg/mL (≈ 88.9 µM) in assay [1]; 0.2 µg/mL (≈ 0.711 µM) in assay [2]; 0.2 µg/mL (≈ 0.711 µM) in assay [3]; 25 µg/mL (≈ 88.9 µM) in assay [4]; 0.2 µg/mL (≈ 0.711 µM) in assay [5]; 0.2 µg/mL (≈ 0.711 µM) in [6].
